Columns and labels:
[1] = target: Gamma-aminobutyric acid receptor subunit alpha-1 (Rattus norvegicus, UniProt P62813)
Glucocorticoid receptor = target: T1, Glucocorticoid receptor (Homo sapiens, UniProt P04150)
T1 sequence (P04150 whole entry): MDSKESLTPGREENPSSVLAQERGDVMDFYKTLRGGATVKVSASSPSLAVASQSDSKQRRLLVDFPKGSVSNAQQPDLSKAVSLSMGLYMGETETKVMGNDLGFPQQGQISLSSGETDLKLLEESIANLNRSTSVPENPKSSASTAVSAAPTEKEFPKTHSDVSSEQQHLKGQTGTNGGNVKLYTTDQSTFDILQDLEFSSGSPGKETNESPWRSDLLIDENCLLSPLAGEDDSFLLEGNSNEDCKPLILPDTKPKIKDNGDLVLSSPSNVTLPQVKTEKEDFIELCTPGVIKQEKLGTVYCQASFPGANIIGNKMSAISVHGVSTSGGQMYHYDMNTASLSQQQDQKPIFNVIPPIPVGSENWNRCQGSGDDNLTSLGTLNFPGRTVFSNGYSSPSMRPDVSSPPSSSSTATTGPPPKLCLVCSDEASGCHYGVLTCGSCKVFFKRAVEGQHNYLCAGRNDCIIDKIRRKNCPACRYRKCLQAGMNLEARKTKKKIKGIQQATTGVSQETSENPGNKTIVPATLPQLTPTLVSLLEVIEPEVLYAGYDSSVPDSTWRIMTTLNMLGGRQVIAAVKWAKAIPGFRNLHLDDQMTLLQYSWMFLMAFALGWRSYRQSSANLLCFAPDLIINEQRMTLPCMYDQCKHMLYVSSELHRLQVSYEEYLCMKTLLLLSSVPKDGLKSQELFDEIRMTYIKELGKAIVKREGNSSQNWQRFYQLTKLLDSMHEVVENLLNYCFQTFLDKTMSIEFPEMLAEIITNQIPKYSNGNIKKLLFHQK

Cannabinoid receptor 1 = Cannabinoid receptor 1 (Homo sapiens, UniProt P21554); assay type: functional, cell-based
[2] = target: T2, Muscarinic acetylcholine receptor M2 (Homo sapiens, UniProt P08172)
T2 sequence (P08172 whole entry): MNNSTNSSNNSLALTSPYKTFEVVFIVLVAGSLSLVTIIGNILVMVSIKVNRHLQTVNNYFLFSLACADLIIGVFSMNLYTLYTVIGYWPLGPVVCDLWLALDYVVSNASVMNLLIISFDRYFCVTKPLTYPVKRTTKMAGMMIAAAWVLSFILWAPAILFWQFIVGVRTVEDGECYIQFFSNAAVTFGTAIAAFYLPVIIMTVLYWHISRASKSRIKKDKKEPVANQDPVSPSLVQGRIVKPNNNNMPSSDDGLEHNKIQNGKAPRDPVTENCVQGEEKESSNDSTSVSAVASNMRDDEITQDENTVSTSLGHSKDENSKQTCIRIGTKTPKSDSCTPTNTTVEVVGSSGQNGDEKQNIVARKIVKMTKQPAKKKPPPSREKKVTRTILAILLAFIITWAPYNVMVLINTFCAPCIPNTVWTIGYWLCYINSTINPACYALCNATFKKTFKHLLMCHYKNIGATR

Progesterone receptor [3] = target: T3, Progesterone receptor (Homo sapiens, UniProt P06401); assay type: functional
T3 sequence (P06401 whole entry): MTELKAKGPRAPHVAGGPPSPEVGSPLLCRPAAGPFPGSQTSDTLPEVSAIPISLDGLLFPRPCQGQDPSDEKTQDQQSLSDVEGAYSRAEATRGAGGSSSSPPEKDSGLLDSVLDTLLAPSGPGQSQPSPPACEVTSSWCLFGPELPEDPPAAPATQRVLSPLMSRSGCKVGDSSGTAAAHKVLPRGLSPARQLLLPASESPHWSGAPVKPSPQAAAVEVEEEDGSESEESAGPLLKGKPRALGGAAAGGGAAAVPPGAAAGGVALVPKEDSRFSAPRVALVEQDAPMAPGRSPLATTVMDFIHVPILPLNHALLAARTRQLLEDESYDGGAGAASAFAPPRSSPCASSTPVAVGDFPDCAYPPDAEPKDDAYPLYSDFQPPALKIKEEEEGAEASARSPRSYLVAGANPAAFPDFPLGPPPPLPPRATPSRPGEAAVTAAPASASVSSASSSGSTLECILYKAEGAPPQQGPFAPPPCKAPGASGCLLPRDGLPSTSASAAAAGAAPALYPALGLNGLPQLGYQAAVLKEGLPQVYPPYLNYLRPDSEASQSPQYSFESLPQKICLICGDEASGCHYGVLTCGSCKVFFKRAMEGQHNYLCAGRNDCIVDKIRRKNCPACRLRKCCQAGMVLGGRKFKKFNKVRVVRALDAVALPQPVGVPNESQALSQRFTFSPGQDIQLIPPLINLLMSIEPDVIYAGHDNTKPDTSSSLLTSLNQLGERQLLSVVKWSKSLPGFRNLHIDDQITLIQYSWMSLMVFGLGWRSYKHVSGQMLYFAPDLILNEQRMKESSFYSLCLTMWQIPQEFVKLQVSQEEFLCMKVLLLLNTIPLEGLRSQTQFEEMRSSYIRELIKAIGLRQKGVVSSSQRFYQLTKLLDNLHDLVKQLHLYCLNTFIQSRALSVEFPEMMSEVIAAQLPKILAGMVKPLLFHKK

[4] = target: Prostaglandin G/H synthase 1 (Homo sapiens, UniProt P23219); assay type: functional
Mu-type opioid receptor = Mu-type opioid receptor (Homo sapiens, UniProt P35372)
Progesterone receptor [5] = target: T3, Progesterone receptor; assay type: functional; remark: listed apart in the source
[6] = target: Muscarinic acetylcholine receptor M3 (Homo sapiens, UniProt P20309)
[7] = target: T4, 5-hydroxytryptamine receptor 2A (Homo sapiens, UniProt P28223); assay type: functional, cell-based
[8] = target: T4, 5-hydroxytryptamine receptor 2A; assay type: functional, cell-based; remark: listed apart in the source
Histamine H1 receptor = Histamine H1 receptor (Homo sapiens, UniProt P35367)
Also: assay procedure not described here.

Muscarinic acetylcholine receptor M3, sequence (P20309 whole entry): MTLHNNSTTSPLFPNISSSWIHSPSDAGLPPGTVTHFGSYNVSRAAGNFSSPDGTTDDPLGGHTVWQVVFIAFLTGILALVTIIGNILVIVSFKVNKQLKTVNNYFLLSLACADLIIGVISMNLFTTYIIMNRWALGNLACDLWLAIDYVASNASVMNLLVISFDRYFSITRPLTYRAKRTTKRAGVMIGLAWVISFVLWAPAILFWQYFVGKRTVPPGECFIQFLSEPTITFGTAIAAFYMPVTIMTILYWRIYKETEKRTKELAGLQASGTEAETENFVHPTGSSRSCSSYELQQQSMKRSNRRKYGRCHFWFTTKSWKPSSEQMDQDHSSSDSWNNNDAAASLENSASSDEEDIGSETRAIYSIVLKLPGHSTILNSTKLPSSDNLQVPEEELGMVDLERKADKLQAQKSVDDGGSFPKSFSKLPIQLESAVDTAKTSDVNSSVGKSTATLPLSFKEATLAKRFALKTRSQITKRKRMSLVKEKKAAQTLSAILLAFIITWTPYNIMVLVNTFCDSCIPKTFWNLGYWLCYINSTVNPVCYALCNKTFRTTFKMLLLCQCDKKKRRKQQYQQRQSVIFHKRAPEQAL
Mu-type opioid receptor, sequence (P35372 whole entry): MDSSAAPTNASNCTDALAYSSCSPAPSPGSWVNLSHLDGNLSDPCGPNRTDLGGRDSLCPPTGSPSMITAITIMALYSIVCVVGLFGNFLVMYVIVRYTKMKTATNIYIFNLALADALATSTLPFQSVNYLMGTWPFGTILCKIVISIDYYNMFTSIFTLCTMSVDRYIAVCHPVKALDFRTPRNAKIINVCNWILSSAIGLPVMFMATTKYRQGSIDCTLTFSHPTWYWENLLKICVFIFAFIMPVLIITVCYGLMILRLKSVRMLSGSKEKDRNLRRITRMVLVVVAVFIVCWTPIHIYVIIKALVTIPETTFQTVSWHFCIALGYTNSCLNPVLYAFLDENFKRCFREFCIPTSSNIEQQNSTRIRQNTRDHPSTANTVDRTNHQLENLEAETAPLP
Gamma-aminobutyric acid receptor subunit alpha-1, sequence (P62813 whole entry): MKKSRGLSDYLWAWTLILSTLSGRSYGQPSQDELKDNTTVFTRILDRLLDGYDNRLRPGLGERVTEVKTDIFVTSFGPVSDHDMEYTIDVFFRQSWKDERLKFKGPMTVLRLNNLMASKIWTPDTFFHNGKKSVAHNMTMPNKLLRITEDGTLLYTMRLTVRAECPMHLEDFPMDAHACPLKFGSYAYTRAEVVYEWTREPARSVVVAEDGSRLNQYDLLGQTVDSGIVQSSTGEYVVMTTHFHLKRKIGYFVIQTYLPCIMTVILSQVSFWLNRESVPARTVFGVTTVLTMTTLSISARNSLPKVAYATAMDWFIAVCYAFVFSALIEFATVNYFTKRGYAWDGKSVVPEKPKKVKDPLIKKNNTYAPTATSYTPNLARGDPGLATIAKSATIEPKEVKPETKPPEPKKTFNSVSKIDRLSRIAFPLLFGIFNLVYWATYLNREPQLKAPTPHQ
Cannabinoid receptor 1, sequence (P21554 whole entry): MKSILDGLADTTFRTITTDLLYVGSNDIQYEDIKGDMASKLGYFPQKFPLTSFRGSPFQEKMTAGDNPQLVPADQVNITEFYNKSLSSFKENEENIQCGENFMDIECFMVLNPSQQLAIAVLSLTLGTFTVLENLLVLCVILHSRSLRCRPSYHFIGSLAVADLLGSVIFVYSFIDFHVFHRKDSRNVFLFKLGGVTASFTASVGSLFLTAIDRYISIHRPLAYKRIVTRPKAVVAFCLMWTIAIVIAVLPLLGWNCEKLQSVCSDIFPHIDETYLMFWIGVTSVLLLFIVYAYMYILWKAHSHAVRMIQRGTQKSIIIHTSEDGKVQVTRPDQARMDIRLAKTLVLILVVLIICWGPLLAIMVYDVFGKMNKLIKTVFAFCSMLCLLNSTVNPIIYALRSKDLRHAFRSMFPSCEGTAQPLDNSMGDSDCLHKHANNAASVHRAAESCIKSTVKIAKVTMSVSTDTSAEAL
T4 sequence (P28223 whole entry): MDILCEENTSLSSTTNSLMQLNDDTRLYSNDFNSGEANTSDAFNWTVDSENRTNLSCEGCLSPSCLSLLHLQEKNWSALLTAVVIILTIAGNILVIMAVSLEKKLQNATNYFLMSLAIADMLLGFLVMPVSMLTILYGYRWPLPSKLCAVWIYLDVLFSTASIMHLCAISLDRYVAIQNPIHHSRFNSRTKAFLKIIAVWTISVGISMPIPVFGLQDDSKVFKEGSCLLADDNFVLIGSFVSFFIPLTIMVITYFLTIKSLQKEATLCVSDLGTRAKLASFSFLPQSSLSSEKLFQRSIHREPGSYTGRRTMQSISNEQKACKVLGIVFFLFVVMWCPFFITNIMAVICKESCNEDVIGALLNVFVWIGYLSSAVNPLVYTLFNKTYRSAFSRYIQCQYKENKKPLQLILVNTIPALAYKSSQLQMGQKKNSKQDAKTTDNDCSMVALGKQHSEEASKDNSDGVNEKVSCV
Prostaglandin G/H synthase 1, sequence (P23219 whole entry): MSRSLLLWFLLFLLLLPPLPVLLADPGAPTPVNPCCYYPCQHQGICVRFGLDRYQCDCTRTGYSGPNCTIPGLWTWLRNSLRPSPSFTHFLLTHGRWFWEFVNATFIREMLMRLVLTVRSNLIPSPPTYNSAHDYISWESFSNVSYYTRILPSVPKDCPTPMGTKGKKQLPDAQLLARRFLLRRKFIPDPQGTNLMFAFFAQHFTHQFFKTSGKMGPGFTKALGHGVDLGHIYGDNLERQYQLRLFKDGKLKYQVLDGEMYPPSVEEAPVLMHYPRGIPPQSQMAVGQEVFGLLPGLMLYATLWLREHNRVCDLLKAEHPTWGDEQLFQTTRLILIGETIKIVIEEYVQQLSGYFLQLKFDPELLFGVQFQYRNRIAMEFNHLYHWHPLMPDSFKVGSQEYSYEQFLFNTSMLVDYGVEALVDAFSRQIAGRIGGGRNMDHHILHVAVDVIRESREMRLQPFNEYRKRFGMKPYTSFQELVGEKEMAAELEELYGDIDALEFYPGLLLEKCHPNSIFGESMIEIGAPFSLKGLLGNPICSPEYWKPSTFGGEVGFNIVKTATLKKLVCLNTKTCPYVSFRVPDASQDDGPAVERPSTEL
Histamine H1 receptor, sequence (P35367 whole entry): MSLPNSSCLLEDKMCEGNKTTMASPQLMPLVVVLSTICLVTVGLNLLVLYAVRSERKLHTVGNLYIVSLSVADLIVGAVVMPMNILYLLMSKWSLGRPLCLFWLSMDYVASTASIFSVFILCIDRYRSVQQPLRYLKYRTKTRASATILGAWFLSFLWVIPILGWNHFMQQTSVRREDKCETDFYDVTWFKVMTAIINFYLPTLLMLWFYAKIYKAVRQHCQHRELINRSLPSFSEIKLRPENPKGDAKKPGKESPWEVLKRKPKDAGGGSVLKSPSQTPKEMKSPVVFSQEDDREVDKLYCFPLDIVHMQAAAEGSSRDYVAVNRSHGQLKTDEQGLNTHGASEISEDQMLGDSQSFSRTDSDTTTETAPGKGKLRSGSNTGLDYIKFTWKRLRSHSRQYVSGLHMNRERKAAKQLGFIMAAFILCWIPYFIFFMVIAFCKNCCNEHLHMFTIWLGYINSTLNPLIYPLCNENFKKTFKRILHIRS

Compound | AC50 [1] | AC50 (Glucocorticoid receptor) | AC50 (Cannabinoid receptor 1) | AC50 [2] | AC50 (Progesterone receptor [3]) | AC50 [4] | AC50 (Mu-type opioid receptor) | AC50 (Progesterone receptor [5]) | AC50 [6] | AC50 [7] | AC50 [8] | AC50 (Histamine H1 receptor)
CCOC(=O)[C@H](CCc1ccccc1)N[C@@H](C)C(=O)N1CCC[C@H]1C(=O)O | > 10 µM | > 30 µM | > 30 µM | > 10 µM |  |  |  |  |  |  |  | 
Nc1nc(N)c2nc(-c3ccccc3)c(N)nc2n1 | > 30 µM | > 30 µM | > 30 µM | > 10 µM | > 30 µM | > 30 µM | 29.1 µM |  |  |  |  | 
C[C@H]1O[C@H](O[C@H]2[C@H](O)[C@@H](O)[C@@H](O[C@H]3[C@H](O)[C@@H](O)C(O)O[C@@H]3CO)O[C@@H]2CO)[C@H](O)[C@@H](O)[C@@H]1N[C@H]1C=C(CO)[C@@H](O)[C@H](O)[C@H]1O (stereo partly specified) [ACARBOSE] |  | > 30 µM | > 30 µM | > 10 µM | > 30 µM | 24.4 µM | > 30 µM | > 30 µM |  |  |  | 
Oc1ncnc2[nH]ncc12 [ALLOPURINOL] | > 10 µM | > 30 µM | > 30 µM | > 10 µM |  | > 30 µM | > 30 µM |  |  |  |  | 
CC(N)Cc1ccccc1 (stereo unspecified) [AMPHETAMINE] | > 10 µM | > 30 µM | > 30 µM | > 10 µM | > 30 µM |  |  | > 30 µM | > 30 µM | > 30 µM | > 30 µM | 
CC(C)NCC(O)COc1ccc(COCCOC(C)C)cc1 (stereo unspecified) [BISOPROLOL] | > 10 µM | > 30 µM |  | > 10 µM |  |  |  |  | > 30 µM | > 30 µM | > 30 µM | > 10 µM
COc1cc(Nc2c(C#N)cnc3cc(OCCCN4CCN(C)CC4)c(OC)cc23)c(Cl)cc1Cl [BOSUTINIB] |  | > 30 µM |  | 6.04 µM |  | > 30 µM | 15.3 µM |  |  |  |  | > 10 µM
CCC[C@@H]1C[C@@H](C(=O)N[C@@H]([C@H]2O[C@H](SC)[C@H](O)[C@@H](O)[C@H]2O)[C@H](C)Cl)N(C)C1 [CLINDAMYCIN] | > 10 µM |  | > 30 µM | > 10 µM |  |  |  |  |  |  |  | 
CN(CCOc1ccc(NS(C)(=O)=O)cc1)CCc1ccc(NS(C)(=O)=O)cc1 [DOFETILIDE] | > 10 µM | > 30 µM | > 30 µM | > 10 µM |  | > 30 µM | > 30 µM |  | > 10 µM | > 30 µM | > 30 µM | > 10 µM
COC(=O)[C@@H]1CC2=CC(=O)CC[C@]2(C)[C@@]23O[C@@H]2C[C@@]2(C)[C@@H](CC[C@@]24CCC(=O)O4)[C@H]13 [EPLERENONE] | > 10 µM |  | > 30 µM | > 10 µM |  |  |  |  | > 30 µM | > 30 µM | > 30 µM | > 30 µM
C#C[C@]1(O)CC[C@H]2[C@@H]3CCc4cc(O)ccc4[C@H]3CC[C@@]21C [ETHINYL ESTRADIOL] | > 10 µM | 0.12 µM |  | > 10 µM |  | > 30 µM | 20.6 µM |  |  |  |  | 
NC(N)=Nc1nc(CSCCC(N)=NS(N)(=O)=O)cs1 [FAMOTIDINE] | > 10 µM | > 30 µM | > 30 µM | > 10 µM |  |  |  |  |  |  |  | 
NS(=O)(=O)c1cc2c(cc1Cl)NCNS2(=O)=O [HYDROCHLOROTHIAZIDE] | > 10 µM | > 30 µM |  | > 10 µM |  |  |  |  |  |  |  | 
CC(C(=O)O)c1ccc(N2CC=CC2)c(Cl)c1 (stereo unspecified) [PIRPROFEN] | > 10 µM | > 30 µM | > 30 µM | > 10 µM |  | 0.115 µM | > 30 µM |  | > 10 µM | > 30 µM | > 30 µM | > 10 µM
O=C(CCCCCCC(=O)Nc1ccccc1)NO [VORINOSTAT] | > 10 µM |  | > 30 µM | > 10 µM | > 30 µM |  |  | > 30 µM | > 30 µM | > 30 µM | > 30 µM | > 30 µM
